Experimental data: paper PMC7179180, “Novel 2,4-Disubstituted-1,3-Thiazole Derivatives: Synthesis, Anti-Candida Activity Evaluation and Interaction with Bovine Serum Albumine” (Molecules, 2020)

Each molecule was assayed against T1, bovine serum albumin (BSA) (Bos taurus, UniProt P02769) (assay: Trp fluorescence quenching). Conditions: pH 7.4, room temperature, BSA 1.5 μM, double-log.
T1 construct: gene ALB; native plasma protein, commercial BSA fraction V (Merck), mature single chain of 583 residues, no further purification
T1 sequence (P02769 25-607): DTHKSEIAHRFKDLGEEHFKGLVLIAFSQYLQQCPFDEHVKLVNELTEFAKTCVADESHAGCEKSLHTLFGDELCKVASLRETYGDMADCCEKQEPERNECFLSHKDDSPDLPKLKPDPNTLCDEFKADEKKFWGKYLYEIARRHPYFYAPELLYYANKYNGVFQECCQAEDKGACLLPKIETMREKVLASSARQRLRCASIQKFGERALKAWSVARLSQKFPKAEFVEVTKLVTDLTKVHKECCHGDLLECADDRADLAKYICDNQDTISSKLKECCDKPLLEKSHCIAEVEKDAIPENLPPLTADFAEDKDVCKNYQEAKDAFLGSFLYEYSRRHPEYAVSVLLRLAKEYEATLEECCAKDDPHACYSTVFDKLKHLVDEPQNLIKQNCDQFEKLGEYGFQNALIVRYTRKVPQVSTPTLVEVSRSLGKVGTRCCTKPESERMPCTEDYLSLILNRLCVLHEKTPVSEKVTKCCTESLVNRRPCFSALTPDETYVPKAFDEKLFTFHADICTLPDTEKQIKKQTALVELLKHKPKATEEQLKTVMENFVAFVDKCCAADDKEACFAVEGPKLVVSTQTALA
Type: binding
From the text: Trp fluorescence quenching on bovine serum albumin (BSA)

Question: Which “Kb × 10^4 (M^-1)” value does the source give for `COc1ccc(-c2csc(COc3cc(C)ccc3C(C)C)n2)cc1` [4a, 2-((2-isopropyl-5-methylphenoxy)methyl)-4-(4-methoxyphenyl)thiazole] here?
Answer: 6.60 × 10^4 M^-1

Question: For `Cc1ccc(C(C)C)c(OCc2nc(-c3ccc(Cl)cc3)cs2)c1` [4b, 4-(4-chlorophenyl)-2-((2-isopropyl-5-methylphenoxy)methyl)thiazole], which “Kb × 10^4 (M^-1)” value is on record?
Answer: 6.98 × 10^4 M^-1

Question: `Cc1ccc(C(C)C)c(OCc2nc(-c3ccc(Br)cc3)cs2)c1` [4c, 4-(4-bromophenyl)-2-((2-isopropyl-5-methylphenoxy)methyl)thiazole] was tested. Which “Kb × 10^4 (M^-1)” value did it give?
Answer: 2.61 × 10^4 M^-1

Question: For `Cc1ccc(C(C)C)c(OCc2nc(-c3ccc4ccccc4c3)cs2)c1` [4d, 2-((2-isopropyl-5-methylphenoxy)methyl)-4-(naphthalen-2-yl)thiazole], which “Kb × 10^4 (M^-1)” value is on record?
Answer: 8.51 × 10^4 M^-1

Question: How did the “Kb × 10^4 (M^-1)” value turn out when `COc1ccc(-c2csc(NN=C(COc3cc(C)ccc3C(C)C)c3ccccc3)n2)cc1` [7a, 2-(2-(2-(2-isopropyl-5-methylphenoxy)-1-phenylethylidene)hydrazineyl)-4-(4-methoxyphenyl)thiazole] was run?
Answer: 5.64 × 10^4 M^-1

Question: `Cc1ccc(C(C)C)c(OCC(=NNc2nc(-c3ccc(Cl)cc3)cs2)c2ccccc2)c1` [7b, 4-(4-chlorophenyl)-2-(2-(2-(2-isopropyl-5-methylphenoxy)-1-phenylethylidene)hydrazineyl)thiazole] was tested. Which “Kb × 10^4 (M^-1)” value did it give?
Answer: 18.02 × 10^4 M^-1

Question: `Cc1ccc(C(C)C)c(OCC(=NNc2nc(-c3ccc(Br)cc3)cs2)c2ccccc2)c1` [7c, 4-(4-bromophenyl)-2-(2-(2-(2-isopropyl-5-methylphenoxy)-1-phenylethylidene)hydrazineyl)thiazole] was tested. Which “Kb × 10^4 (M^-1)” value did it give?
Answer: 1.85 × 10^4 M^-1

Question: For `Cc1ccc(C(C)C)c(OCC(=NNc2nc(-c3ccc4ccccc4c3)cs2)c2ccccc2)c1` [7d, 2-(2-(2-(2-isopropyl-5-methylphenoxy)-1-phenylethylidene)hydrazineyl)-4-(naphthalen-2-yl)thiazole], which “Kb × 10^4 (M^-1)” value is on record?
Answer: 9.14 × 10^4 M^-1
